Assay results as given in US9327023B2, “HER2 targeting agent treatment in non-HER2-amplified cancers having HER2 expressing cancer stem cells” (The Regents of the University of Michigan, priority 2011, dated 2016).
Entries after “also recorded” stand apart in the source; their conditions may differ.

Experiments:
IL6, IL8, and CCL5 = test: cytokine secretion of Sum159-HER2+PTEN- cells, ELISA; format: cell-based, human; settings: for secretion of all three cytokines (IL6, IL8, CCL5) / reduced the levels of these cytokines: Sum159-HER2+PTEN- cells, 1 mM Stat3 Inhibitor VII; for secretion of all three cytokines (IL6, IL8, CCL5): 5 mM Bay11-7082, 5 mM perfosine; for reduced the levels of these cytokines: 5 mM perfosine
Experimental: The NF-kB transcription factor is involved in the transcription of a number of cytokine genes including IL6, IL8, and CCL5 (Yu et al., 2010; herein incorporated by reference in its entirety). Furthermore, IL6-activated NF-kB signaling is mediated by Stat3 and Akt signaling pathways (Iliopoulos et al., 2009; herein incorporated by reference in its entirety). […] The effect of recombinant cytokines or cytokine-blocking antibodies on cytokine production was determined.

[1] = test system: SUM159-HER2+PTEN- xenografts; test: SUM159-HER2+PTEN- trastuzumab-resistant xenografts; settings: for serum IL6 or IL8 levels: human specific ELISA; for percent of Aldefluor-positive cells in tumors: mouse, in vivo; for body weight: tumor-bearing mice, docetaxel 10 mg/kg once a week; for tumor growth: 8 weeks, perifosine 20 mg/kg twice a week, anti-IL6R 10 mg/kg once a week; for serum human IL6 and IL8 in control and docetaxel-treated mice higher than in treated mice: ELISA
[2] = test system: HER2 amplified BT474 tumor xenografts; test: BT474 xenograft in fat pad, early and late treatment; format: in vivo, NOD/SCID mice; settings: for growth of established BT474 tumors: late treatment, trastuzumab 4 mg/kg IP twice a week, docetaxel 10 mg/kg IP once a week
Experimental: (§1) Five-week old NOD/SCID mice from breeding colony, University of Michigan, Harland and Jackson Laboratory were used throughout the experiments. All experiments involving live mice were conducted in accordance with standard operating procedures approved by University Committee on the Use and Care of Animals at the University of Michigan (ULAM). An estrogen pellet was subcutaneously implanted in each mouse with the fat pad injection of MCF7 or ZR75-1 cells. Mice were sacrificed when tumor reached 1-1.2 CM.
(§2) A xenograft model was used to simulate clinical disease in adjuvant (early treatment) and advanced (late treatment) setting. 5 mice per treatment group were used. For adjuvant setting, 50,000 cells of BT474, ZR75-1 and MCF7 were injected into fat pads and began treatment immediately after inoculation. To simulate advanced disease, 1 million cells of BT474, ZR75-1 and MCF7 were inoculated into fat pads and tumors allowed to reach a size of approximately 0.4 cm. Then, treatment described below was initiated and continued along with assessment of tumor growth for 6-week period. Animals were sacrificed right after completion of 6-week treatment and cancer stem cells were analyzed by Aldefluor assay as described previously.
(§3) NOD/SCID mice implanted with luciferase-labeled cells received 6-week of treatment in both advanced and adjuvant setting.
(§4) Fat pad tumor diameter was measured by caliper weekly. Tumor volumes were calculated using the formula: volume=width^2×length/2. Luciferase-labeled tumor growth was monitored at least every 2 weeks using in vivo imaging system (ISVS, Caliper Life Science). Mice were injected with luciferin (Caliper), anesthetized and imaged according to manufacturer's protocols. For photon flux counting, a charge-coupled device camera system (Xenogen) with a nose-cone isofluorane delivery system and heated stage for maintaining body temperature was used. Results were analyzed after 10 minutes of exposure using the Living Image software provided with the Xenogen imaging system.

[3] = test system: luminal ZR75-1 tumor xenografts; test: ZR75-1 xenograft in fat pad, early and late treatment; format: in vivo, NOD/SCID mice; settings: for growth of established ZR75-1 tumors: late treatment, trastuzumab 4 mg/kg IP twice a week, docetaxel 10 mg/kg IP once a week
Experimental: as §1, §2, §3, §4

[4] = test system: HER2 expression in MCF7 cells; test: co-culture of MCF7 cells with human osteocytes, HER2 expression by flow cytometry; format: cell-based; settings: MCF7 co-cultured with human osteocytes
Experimental: Preparation of cells for FACS analysis and sorting was described as followings. Cells were collected and rinsed twice in 1×PBS containing 2% FBS and a fraction of cells were added with human immunoglobulin to identify non-specific binding and use these cells as a gate for negative control. Cells were incubated with appropriate antibody dilution as manufacture's guidelines. The antibody included anti-HER2/neu APC (Biosciences, Cat#340554), anti-HER2/neu PE (Biosciences, Cat#340552).
To simulate the bone microenvironment in vitro, co-culture experiments were performed utilizing MCF7, DsRed labeled with osteocytes generated from human bone mesenchymal stem cells. […] A number of biological effects of the bone microenvironment and mediated by RANK-ligand.

[5] = test system: trastuzumab-resistant BT474-PTEN- xenografts; test: BT474-PTEN- xenografts; format: in vivo, NOD/SCID mice; settings: for secondary tumors and distant metastasis after excision of primary tumors: excised after 8 weeks of treatment, luciferase imaging
Text: Treatments for all early settings were 8 weeks long. […] Drug doses were as described in early setting.
To determine the effects of these treatments on the development of metastasis, we excised primary BT474-PTEN^− tumors after 8 weeks of treatment and assessed subsequent development of local and distant metastasis by luciferase imaging (FIG. 7D).

[6] = test system: BT474-DsRed and BT474-PTEN- cells; test: CD44+/CD24- flow cytometry of BT474 cells; format: cell-based, human
Experimental: (§5) To measure ALDH activity, the Aldefluor assay was carried out according to manufacturer's guidelines (StemCell Technologies, Inc., Durham, N.C.). Indicated cells were incubated with fluorophore-conjugated CD44 or CD24 antibodies alone or in combination on ice for 30 min, washed with Hank's balanced salt solution (HBSS), and resuspended in DAPI containing HBSS buffer for flow cytometry analyses.
To determine whether induction of the CSC phenotype was dependent on IL6 production, the effect of addition of IL6 receptor antibody on induction of the CSC phenotype was assessed. […] The ability of the anti-IL6R antibody to affect the CD44^+/CD24^− population in Sum159 cells, which lack the expression of the luminal CD24 marker, was examined.

[7] = test system: breast CSCs (tumor-initiating cells); test: reimplantation assay of residual tumor cells into secondary mice; format: in vivo; settings: residual tumors from treated mice
Text: One of the hallmarks of CSC model is their ability to initiate tumors in secondary reimplantation assays (Clarke et al., 2006; herein incorporated by reference in its entirety).

BT474 cells [8] = test: cell growth / viable cells of BT474 cells; format: cell-based, human; settings: parental BT474 cells
[9] = test system: parental BT474 or SKBR cells; test: stimulation with recombinant IL6 or conditioned medium, mesenchymal phenotype and CD44; format: cell-based, human; settings: 5 days
Text: (§6) The green fluorescent protein (GFP) label in the parental (PTEN wild-type) cells allowed separation by flow cytometry of cell populations following co-culture. Co-culture of parental BT474-GFP cells with BT474-PTEN^−LTT cells increased the percentage of CD44^+/CD24^− CSCs from 0.1% to 60% in parental cells (SEE FIG. 15A). Single GFP-expressing parental BT474 cells were sorted after 3 weeks of co-culture with BT474-PTEN^−LTT and generated multiple colonies. […] To examine the direct role of IL6 in these processes, parental BT474 or SKBR cells were stimulated with recombinant IL6 or conditioned medium (CM) from BT474-PTEN^−LTT cells in the presence or absence of anti-IL6R antibody.

BT474 cells [10] = test: tumorspheres in suspension cultures of BT474 cells; format: cell-based, human
Experimental: Single cells were plated on ultra-low attachment plates at a density of 1×10^5/ml and grown for 7 days in a mammocult medium (Stem Cell Technologies). After the treatment of primary spheres, they were dissociated into single-cell suspension and plated at a density of 5×10^3-1×10^4/ml for the subsequent passages. Secondary spheres were counted after 5-7 days in culture.

parental BT474 cells = test: co-culture of parental BT474 cells with BT474-PTEN-LTT cells; format: cell-based, human
Text: as §6

Sum159 cells = test: CD44/CD24 flow cytometry of Sum159 cells; format: cell-based, human; settings: 5 days
Experimental: as §5
However, there was approximately a 2-fold increase in IL6 secretion when cells were treated for 3 weeks or longer (SEE FIG. 14A). […] The effects of trastuzumab-mediated IL6 production on CSCs were also tested. […] In contrast, downregulation of PTEN in these cells generated a population that contained approximately 10% CD44^+/CD24^− cells (FIG. 14B). […] To determine whether induction of the CSC phenotype was dependent on IL6 production, the effect of addition of IL6 receptor antibody on induction of the CSC phenotype was assessed. […] The ability of the anti-IL6R antibody to affect the CD44^+/CD24^− population in Sum159 cells, which lack the expression of the luminal CD24 marker, was examined. […] This discrepancy may be explained by the existence of different stem cell populations in different breast cancer subtypes.

[11] = test system: trastuzumab-sensitive BT474-DsRed xenografts; test: BT474-DsRed xenografts; format: in vivo, NOD/SCID mice; settings: 7-week period, compared to saline

Cc1ccc(S(=O)(=O)/C=C/C#N)cc1 [Bay11-7082]
secretion of all three cytokines (IL6, IL8, CCL5) (IL6, IL8, and CCL5): completely inhibited | secretion of all three cytokines (IL6, IL8, CCL5) (IL6, IL8, and CCL5; listed as Bay11): almost completely blocked; also recorded: completely suppressed

CC(=O)O[C@@]12CO[C@@H]1C[C@H](O)[C@@]1(C)C(=O)[C@H](O)C3=C(C)[C@@H](OC(=O)[C@H](O)[C@@H](NC(=O)OC(C)(C)C)c4ccccc4)C[C@@](O)([C@@H](OC(=O)c4ccccc4)[C@H]21)C3(C)C [docetaxel]
serum IL6 or IL8 levels [1]: no significant effect | percent of Aldefluor-positive cells in tumors [1]: no significant effect; also recorded: no reduction | body weight [1]: lost body weight | tumor growth / formation, BT474 ([2]; early (adjuvant) setting): suppressed tumor formation | growth of established BT474 tumors [2]: reduced tumor growth | growth of established BT474 tumors ([2]; listed as Docetaxel): highest efficacy to shrink tumors | tumor growth / formation, ZR75-1 ([3]; early (adjuvant) setting): suppressed tumor formation | growth of established ZR75-1 tumors [3]: reduced tumor growth | growth of established ZR75-1 tumors ([3]; listed as Docetaxel): highest efficacy to shrink tumors

CCCCCCCCCCCCCCCCCCOP(=O)([O-])OC1CC[N+](C)(C)CC1 [perifosine]
secretion of all three cytokines (IL6, IL8, CCL5) (IL6, IL8, and CCL5): only partially inhibited | reduced the levels of these cytokines (IL6, IL8, and CCL5): 50% | tumor growth [1]: significantly inhibited tumor growth | serum human IL6 and IL8 in control and docetaxel-treated mice higher than in treated mice [1]: 2 fold | serum IL6 or IL8 levels [1]: significantly reduced | percent of Aldefluor-positive cells in tumors [1]: significantly reduced; also recorded: substantial reduction | body weight [1]: less body weight loss

Stat3 Inhibitor VII
secretion of all three cytokines (IL6, IL8, CCL5) (IL6, IL8, and CCL5): only partially inhibited | reduced the levels of these cytokines (IL6, IL8, and CCL5): 50%

denosumab
HER2 induction by osteocyte co-cultures [4]: partially blocked | HER2 induction by osteocyte co-cultures ([4]; listed as Denosumab): able to suppress

Tocilizumab [anti-IL6R antibody]
growth of BT474-PTEN- xenografts ([5]; early treatment): completely blocked tumor growth | tumor growth as assessed by tumor weight at sacrifice ([5]; established tumors (late treatment)): completely blocked tumor growth | secondary tumors and distant metastasis after excision of primary tumors [5]: no distant metastasis detected | secondary tumors and distant metastasis after excision of primary tumors ([5]; listed as Anti-IL6R antibody): completely inhibited | serum IL6 levels ([5]; human specific ELISA): lowest levels | CD44+/CD24- CSC population [6]: reduced | increase in CD44+/CD24- population induced by trastuzumab [6]: completely blocked | frequency of CSCs reduced [7]: more than 50% | frequency of breast CSCs [7]: significantly lower | CM- or IL6-conferred resistance to trastuzumab (BT474 cells [8]): blocked; also recorded: reversed | IL6-increased production of all three cytokines (IL6, IL8, and CCL5; HER2+PTEN- cells with recombinant IL6): completely inhibited | reduced the levels of these cytokines (IL6, IL8, and CCL5): more than 50% | IL6- or CM-induced mesenchymal phenotype and CD44 expression [9]: able to reverse | number of tumorspheres induced by CM (BT474 cells [10]): reduced | induction of the CD44+/CD24- phenotype (parental BT474 cells; antibody added at the time of co-culture): inhibited | CD44+/CD24- phenotype in parental cells (parental BT474 cells; late treatment): no effect; also recorded: resistant | tumor growth [1]: significantly inhibited tumor growth | serum human IL6 and IL8 in control and docetaxel-treated mice higher than in treated mice [1]: 2 fold | serum IL6 or IL8 levels [1]: significantly reduced | percent of Aldefluor-positive cells in tumors [1]: significantly reduced; also recorded: substantial reduction | cell growth (Sum159 cells): substantial growth arrest | generation of CD24+ cells (Sum159 cells): 11% | growth of BT474-DsRed xenografts [11]: little effect
